Values quoted from earlier work in patent publication US7888378B2, “Thiadiazole compounds and uses thereof” (Mallinckrodt Inc., priority 2006, dated 2011).

Test system: tumors
Details: after administering the substance

In the case of `NCC(=O)CCC(=O)O` [delta-aminolevulinic acid], the “uptake of porphyrins in tumors compared to normal tissues” value is listed as “two-fold”.
